Where a chain is given by its changes, count along the chain named.
Key:
LNCaP (T878A) cells = test: cells; conditions: Homo sapiens, 168 h
Description: LNCaP cells in a good growth state were taken, washed with PBS, and digested with pancreatin, and a phenol red-free 1640 complete medium containing 2% CSS-FBS was added to terminate the digestion. The cells were collected into a centrifuge tube, adjusted to a cell density of 1 × 10^5 cells/mL, and seeded in a 96-well plate (100 µL/well). Meanwhile, compounds were added using a nanoliter pipettor and subjected to a 2-fold gradient dilution such that the final concentrations of the compounds were 1000 nM-0.061 nM and 5000 nM-0.305 nM. 2 duplicate wells were set, and meanwhile, a control was set. After the cells were cultured in the cell incubator for another 168 h, the detection reagent CCK-8 (manufacturer: Dojindo, 10 µL/well) was added. After 2.0 h of incubation in the cell incubator, absorbance values at 450 nm were measured using a PerkinElmer Envision microplate reader, the four-parameter analysis was performed, the dose-response curves were fit, and IC50 was calculated.

[1] = In vitro liver microsome stability, human; format: in vitro ADME; conditions: human liver microsomes 0.5 mg/mL, 37 °C, NADPH
Description: (§1) Liver microsome incubation samples were prepared by mixing a PBS buffer (pH 7.4), a liver microsome solution (0.5 mg/mL), a test compound, and an NADPH + MgCl2 solution, followed by incubation at 37 °C and 300 rpm for 1 h. Zero-hour samples were prepared by mixing a PBS buffer (pH 7.4), a liver microsome solution (0.5 mg/mL), and a test compound. […]

VCaP cells = test: Assay on inhibitory activity for VCaP cell proliferation (CCK-8); format: cell-based; conditions: Homo sapiens, 168 h
[2] = In vitro liver microsome stability, mouse; format: in vitro ADME; conditions: mouse liver microsomes 0.5 mg/mL, 37 °C, NADPH
Description: as §1

[3] = molecular target: T1, AR in LNCaP (T878A) cells (Homo sapiens, UniProt P10275, T878A); test: Assay on degradation activity for AR in LNCaP (T878A) cells (HTRF); format: cell-based; conditions: maximum degradation rate, 24 h
T1 construct: Assay on degradation activity for AR in LNCaP (T878A) cells; endogenous in cells; host or cells: LNCaP cells
T1 sequence (P10275 1-920 T878A): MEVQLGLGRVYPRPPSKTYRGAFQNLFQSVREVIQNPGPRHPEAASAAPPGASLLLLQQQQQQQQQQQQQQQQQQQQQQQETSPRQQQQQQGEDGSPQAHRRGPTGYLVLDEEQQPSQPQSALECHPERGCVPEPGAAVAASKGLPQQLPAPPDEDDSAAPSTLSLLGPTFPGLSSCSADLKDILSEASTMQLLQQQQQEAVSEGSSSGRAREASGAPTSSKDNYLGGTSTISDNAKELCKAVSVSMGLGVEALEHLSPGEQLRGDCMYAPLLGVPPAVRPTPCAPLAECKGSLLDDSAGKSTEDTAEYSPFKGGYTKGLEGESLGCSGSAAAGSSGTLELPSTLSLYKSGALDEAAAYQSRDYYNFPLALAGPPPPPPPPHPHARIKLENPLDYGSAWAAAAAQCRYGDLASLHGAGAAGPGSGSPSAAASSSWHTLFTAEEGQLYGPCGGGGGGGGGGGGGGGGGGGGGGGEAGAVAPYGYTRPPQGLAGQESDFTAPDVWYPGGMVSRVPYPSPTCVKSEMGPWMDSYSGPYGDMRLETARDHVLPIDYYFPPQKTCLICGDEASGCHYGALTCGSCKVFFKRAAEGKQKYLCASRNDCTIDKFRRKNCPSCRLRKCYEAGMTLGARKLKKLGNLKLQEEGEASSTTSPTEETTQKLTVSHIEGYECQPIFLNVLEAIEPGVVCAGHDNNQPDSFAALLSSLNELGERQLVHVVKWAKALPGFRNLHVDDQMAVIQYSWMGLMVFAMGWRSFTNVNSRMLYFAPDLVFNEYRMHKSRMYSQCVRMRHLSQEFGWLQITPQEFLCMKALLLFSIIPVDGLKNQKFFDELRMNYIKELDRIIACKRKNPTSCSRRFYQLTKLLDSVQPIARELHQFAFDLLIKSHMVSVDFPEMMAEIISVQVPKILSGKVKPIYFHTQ
Description: (§2) The detection was carried out using the HTRF HUMAN ANDROGEN RECEPTOR DETECTION KIT (cisbio, 64ANDRPEG), 4× Supplemented Lysis buffer was prepared using the Blocking reagent stock solution (100×) and Lysis buffer stock solution (4×), and 1× Supplemented Lysis buffer was prepared using the 4× Supplemented Lysis buffer and ddH2O. Premixed antibody solutions were prepared using Detection buffer, Androgen Receptor Eu Cryptate antibody, and Androgen Receptor d2 antibody.
(§3) The cells were cultured overnight in a cell incubator. […] After the cells were oscillated for 40 min at room temperature, 16 µL of the cell lysis buffer was added to a 384-well plate, the Premixed antibody solutions were added at 4 µL/well, and the mixture was left to stand at 25 °C for 2 h. […] Table 2. Degradation activity of compounds for AR in LNCaP (T878A) cells

Mouse pharmacokinetics = conditions: for F: Mouse i.g. (0-48 h), 10 mpk vs i.v. 1 mpk
Description: (§4) ICR mice weighing 18-22 g were randomized into groups of 9 after 3-5 days of acclimatization. The mice in the intragastric administration group were intragastrically given the test compound solution at a dose of 10 mg/kg (20 mg/kg or 30 mg/kg), and the mice in the intravenous injection administration group were intravenously injected with the test compound solution at a dose of 1 mg/kg.
(§5) Blood was collected from the orbit to prepare plasma samples to be tested.
(§6) 30 µL of each of the plasma samples to be tested and a standard curve sample were taken, and an acetonitrile solution containing an internal standard was added. Supernatants were obtained by protein precipitation, diluted with a 1:1 (v:v) mixed solution of acetonitrile and water, and then assayed by LC/MS/MS. Data were fitted using a non-compartmental model.

AR in VCaP cells = molecular target: T2, AR in VCaP cells (Homo sapiens, UniProt P10275); test: Assay on degradation activity for AR in VCaP cells (HTRF human androgen receptor detection kit); format: cell-based; conditions: 24 h; for DC50: AR degradation; for Dmax: maximum degradation rate
T2 construct: Assay on degradation activity for AR in VCaP cells; endogenous in cells; host or cells: VCaP cells
T2 sequence (P10275 1-920): T1 sequence (P10275 1-920 T878A) with A878T
Description: as §2
as §3, with “1.” for “2.”, “VCaP” for “LNCaP (T878A)”

in vivo = conditions: mouse
Description: as §4, §5, §6

[4] = molecular target: T3, AR in MDA-PCA-2B (L702H\T878A) cells (Homo sapiens, UniProt P10275, L702H/T878A); test: Assay on degradation activity for AR in MDA-PCA-2B (L702H\T878A) cells (HTRF); format: cell-based; conditions: 24 h; for DC50: AR degradation; for Dmax: maximum degradation rate
T3 construct: Assay on degradation activity for AR in MDA-PCA-2B (L702H\T878A) cells; endogenous in cells; host or cells: MDA-PCA-2B cells
T3 sequence (P10275 1-920 L702H/T878A): T1 sequence (P10275 1-920 T878A) with L702H
Description: as §2
The cells were cultured overnight in a cell incubator. […] After the cells were oscillated for 40 min at room temperature, 16 µL of the cell lysis buffer was added to a 384-well plate, the Premixed antibody solutions were added at 4 µL/well, and the mixture was left to stand at 25 °C for 2 h. […]

[5] = ICR, mouse, plasma, iv, 1 mg/kg
[6] = ICR, mouse, plasma, po, 10 mg/kg

Compound	HLM (human) Remaining amount at 60 min % [1]	IC50 (VCaP cells)	MLM (mouse) Remaining amount at 60 min % [2]	F (Mouse pharmacokinetics)	DC50 (AR in VCaP cells)	Dmax (AR in VCaP cells)	DC50 [4]	Dmax [4]	also measured
COc1cc(O[C@H]2C(C)(C)[C@H](NC(=O)c3ccc(N4CCC(CN5CCc6c(ccc7c(C8CCC(=O)NC8=O)noc67)C5)CC4)cn3)C2(C)C)ccc1C#N (stereo partly shown) [Compound 2]	>70%	< 2000 nM	>70%	–	–	–	–	–	IC50 (LNCaP (T878A) cells): < 50 nM; Dmax [3]: > 90%
COc1cc(O[C@H]2C(C)(C)[C@H](NC(=O)c3ccc(N4CCC(CN5Cc6ccc7c(C8CCC(=O)NC8=O)noc7c6C5)CC4)cc3)C2(C)C)ccc1C#N (stereo partly shown) [Compound 8]	>70%	–	>70%	37.00%	< 5 nM	> 75%	< 500 nM	> 70%	AUC at 48 h (in vivo; iv, 1 mg/kg): 20200 ng·h/mL; Vd (in vivo; iv, 1 mg/kg): 1.1 L/kg; clearance (in vivo; iv, 1 mg/kg): 0.7 mL/min/kg; half-life (in vivo; iv, 1 mg/kg): 18 h; AUC at 48 h (in vivo; po, 10 mg/kg): 77600 ng·h/mL; Cmax (in vivo; po, 10 mg/kg): 2810 ng/mL; half-life (in vivo; po, 10 mg/kg): 15 h
COc1cc(O[C@H]2C(C)(C)[C@H](NC(=O)c3ccc(N4CCC(CN5CCc6ccc7c(C8CCC(=O)NC8=O)noc7c6C5)CC4)cc3)C2(C)C)ccc1C#N (stereo partly shown) [Compound 9]	>70%	–	–	–	–	–	< 500 nM	> 70%	–
COc1cc(O[C@H]2C(C)(C)[C@H](NC(=O)c3ccc(N4CCC(CN5CCc6ccc7c(C8CCC(=O)NC8=O)noc7c6CC5)CC4)cc3)C2(C)C)ccc1C#N (stereo partly shown) [Compound 10]	>70%	< 2000 nM	>70%	30.00%	< 5 nM	> 75%	< 500 nM	> 70%	AUC at 48 h (in vivo; iv, 1 mg/kg): 5400 ng·h/mL; Vd (in vivo; iv, 1 mg/kg): 3.1 L/kg; clearance (in vivo; iv, 1 mg/kg): 2.83 mL/min/kg; half-life (in vivo; iv, 1 mg/kg): 13 h; AUC at 48 h (in vivo; po, 10 mg/kg): 16200 ng·h/mL; Cmax (in vivo; po, 10 mg/kg): 620 ng/mL; half-life (in vivo; po, 10 mg/kg): 11 h
COc1cc(O[C@H]2C(C)(C)[C@H](NC(=O)c3ccc(N4CCC(CN5Cc6ccc7c(C8CCC(=O)NC8=O)noc7c6C5)CC4)nc3)C2(C)C)ccc1C#N (stereo partly shown) [Compound 11]	>70%	< 2000 nM	>70%	–	< 5 nM	> 75%	< 500 nM	> 70%	–
COc1cc(O[C@H]2C(C)(C)[C@H](NC(=O)c3ccc(N4CCC(CN5CCc6ccc7c(C8CCC(=O)NC8=O)noc7c6C5)CC4)nc3)C2(C)C)ccc1C#N (stereo partly shown) [Compound 12]	>70%	–	–	–	–	–	< 500 nM	> 70%	–
COc1cc(O[C@H]2C(C)(C)[C@H](NC(=O)c3ccc(N4CCC(CN5CCc6ccc7c(C8CCC(=O)NC8=O)noc7c6CC5)CC4)nc3)C2(C)C)ccc1C#N (stereo partly shown) [Compound 13]	–	< 2000 nM	>70%	41.00%	< 5 nM	> 75%	< 500 nM	> 70%	AUC (Mouse pharmacokinetics; [5]): 6810 ng·h/mL; Vd (Mouse pharmacokinetics; [5]): 2 L/kg; clearance (Mouse pharmacokinetics; [5]): 2.33 mL/min/kg; half-life (Mouse pharmacokinetics; [5]): 9.7 h; AUC (Mouse pharmacokinetics; [6]): 28000 ng·h/mL; Cmax (Mouse pharmacokinetics; [6]): 1390 ng/mL; half-life (Mouse pharmacokinetics; [6]): 8.3 h

From EP4768489A1, “CYCLOBUTYL-CONTAINING COMPOUNDS” (Chia Tai Tianqing Pharmaceutical Group Co., Ltd., priority 2023, dated 2025)
